# In patent publication US6737383B1, “Herbicidal oxadiazolidines” (priority 1999, dated 2004):
# Assays:
# sunflower = assay: Test E sunflower; type: in vivo, Helianthus annuus; conditions: Postemergence; for Plant response rating, Sunflower: 0 to 100 scale
# In short: (§1)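 Postemergence: spray at 1–4 leaf stage, soil 60:40 sandy loam:potting mix; solvent + surfactant formulation; greenhouse 21–28 d; visual injury vs untreated controls.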
# arrowleaf sida = assay: Test C postemergence arrowleaf sida; type: in vivo, Sida rhombifolia; conditions: 0 to 100 scale, 0 no effect, 100 complete control
# In short: (§2)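 In this greenhouse assay, treated and untreated plants were kept for approximately 14 to 21 days following postemergence application, then rated by eye on a scale from 0 (no effect) to 100 (complete control).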
# ladysthumb smartweed = assay: Test C postemergence ladysthumb smartweed; type: in vivo, Polygonum persicaria; conditions: 0 to 100 scale, 0 no effect, 100 complete control
# In short: as §2
# large crabgrass [1] = assay: Test D large crabgrass; type: in vivo, Digitaria sanguinalis; conditions: Postemergence, 0 to 100 scale
# pitted morningglory = assay: Test D pitted morningglory; type: in vivo, Ipomoea lacunosa; conditions: Postemergence, 0 to 100 scale
# wild oat = assay: Test E wild oat; type: in vivo, Avena fatua; conditions: Postemergence; for Plant response rating, Wild oat: 0 to 100 scale
# In short: as §1
# soybean = assay: Test C postemergence soybean; type: in vivo, Glycine max; conditions: 0 to 100 scale, 0 no effect, 100 complete control
# In short: as §2
# itchgrass = assay: Test D itchgrass; type: in vivo, Rottboellia exaltata; conditions: Postemergence, 0 to 100 scale
# chickweed = assay: Test E chickweed; type: in vivo, Stellaria media; conditions: Postemergence; for Plant response rating, Chickweed: 0 to 100 scale
# In short: as §1
# purple nutsedge = assay: Test C postemergence purple nutsedge; type: in vivo, Cyperus rotundus; conditions: 0 to 100 scale, 0 no effect, 100 complete control
# In short: as §2
# ivyleaf morningglory = assay: Test C postemergence ivyleaf morningglory; type: in vivo, Ipomoea hederacea; conditions: 0 to 100 scale, 0 no effect, 100 complete control
# In short: as §2
# corn = assay: Test C postemergence corn; type: in vivo, Zea mays; conditions: 0 to 100 scale, 0 no effect, 100 complete control
# In short: as §2
# large crabgrass [2] = assay: Test C postemergence large crabgrass; type: in vivo, Digitaria sanguinalis; conditions: 0 to 100 scale, 0 no effect, 100 complete control
# In short: as §2
# sugar beet = assay: Test E sugar beet; type: in vivo, Beta vulgaris; conditions: Postemergence; for Plant response rating, Sugar beet: 0 to 100 scale
# In short: as §1
# deadnettle = assay: Test E deadnettle; type: in vivo, Lamium amplexicaule; conditions: Preemergence
# wild mustard = assay: Test E wild mustard; type: in vivo, Sinapis arvensis; conditions: Preemergence
# [3] = Rate 500 g/ha, 0 no effect, 100 complete control
# [4] = Rate 250 g/ha, 0 to 100 scale where 0 is no effect and 100 is complete control
# [5] = Rate 64 g/ha, 0 no injury, 100 complete control
# [6] = Rate 125 g/ha, 0 no injury, 100 complete control
# [7] = Rate 125 g/ha, 0 to 100 scale (0 no effect, 100 complete control)
# [8] = Rate 500 g/ha, 0 to 100 scale where 0 is no effect and 100 is complete control
structure (smiles),measurement,setting,value
C=CCn1c(=O)on(C(=O)N(c2ccc(F)cc2)C(C)C)c1=O [Compound 146],"Plant response rating, Sunflower",sunflower; Rate 62 g/ha,0
same,"Plant response rating, Sunflower",sunflower; Rate 125 g/ha,40
same,"Plant response rating, Sunflower",sunflower; [3],50
same,Sunflower plant response rating,sunflower; [4],40
same,Plant response rating Arrowleaf sida,arrowleaf sida; Rate 140 g/ha,40
same,Plant response rating Arrowleaf sida,arrowleaf sida; Rate 280 g/ha,45
same,Plant response rating Arrowleaf sida,arrowleaf sida; Rate 560 g/ha,85
same,Plant response rating Arrowleaf sida,arrowleaf sida; Rate 1120 g/ha,90
same,Plant response rating Ladysthumb,ladysthumb smartweed; Rate 140 g/ha,0
same,Plant response rating Ladysthumb,ladysthumb smartweed; Rate 280 g/ha,10
same,Plant response rating Ladysthumb,ladysthumb smartweed; Rate 560 g/ha,85
same,Plant response rating Large crabgrass,large crabgrass [1]; [5],20
same,Plant response rating Large crabgrass,large crabgrass [1]; [6],20
same,Plant response rating Large crabgrass,large crabgrass [1]; Rate 250 g/ha,50
same,Plant response rating Large crabgrass,large crabgrass [1]; Rate 500 g/ha,65
same,"Plant response rating, P. morninglory",pitted morningglory; [5],30
same,"Plant response rating, P. morninglory",pitted morningglory; [6],40
same,"Plant response rating, P. morninglory",pitted morningglory; Rate 250 g/ha,50
same,"Plant response rating, P. morninglory",pitted morningglory; Rate 500 g/ha,65
same,"Plant response rating, Wild oat",wild oat; Rate 62 g/ha,20
same,"Plant response rating, Wild oat",wild oat; Rate 125 g/ha,5
same,"Plant response rating, Wild oat",wild oat; [3],10
same,Wild oat plant response rating,wild oat; [4],0
same,"Plant response rating, Soybean",soybean; Rate 140 g/ha,40
same,"Plant response rating, Soybean",soybean; Rate 280 g/ha,50
same,"Plant response rating, Soybean",soybean; Rate 560 g/ha,60
same,"Plant response rating, Soybean",soybean; Rate 1120 g/ha,85
same,"Plant response rating, Itchgrass",itchgrass; [5],30
same,"Plant response rating, Itchgrass",itchgrass; [6],30
same,"Plant response rating, Itchgrass",itchgrass; Rate 250 g/ha,50
same,"Plant response rating, Itchgrass",itchgrass; Rate 500 g/ha,65
same,"Plant response rating, Chickweed",chickweed; Rate 62 g/ha,30
same,"Plant response rating, Chickweed",chickweed; Rate 125 g/ha,0
same,"Plant response rating, Chickweed",chickweed; [3],30
same,Chickweed plant response rating,chickweed; [4],0
same,"Plant response rating, Purple nutsedge",purple nutsedge; Rate 140 g/ha,0
same,"Plant response rating, Purple nutsedge",purple nutsedge; Rate 280 g/ha,0
same,"Plant response rating, Purple nutsedge",purple nutsedge; Rate 560 g/ha,0
same,"Plant response rating, Purple nutsedge",purple nutsedge; Rate 1120 g/ha,0
same,Plant response rating I. morningglory,ivyleaf morningglory; Rate 140 g/ha,0
same,Plant response rating I. morningglory,ivyleaf morningglory; Rate 280 g/ha,20
same,Plant response rating I. morningglory,ivyleaf morningglory; Rate 560 g/ha,20
same,Plant response rating I. morningglory,ivyleaf morningglory; Rate 1120 g/ha,50
same,"Plant response rating, Corn",corn; Rate 140 g/ha,0
same,"Plant response rating, Corn",corn; Rate 280 g/ha,0
same,"Plant response rating, Corn",corn; Rate 560 g/ha,5
same,"Plant response rating, Corn",corn; Rate 1120 g/ha,50
same,Plant response rating Large crabgrass,large crabgrass [2]; Rate 140 g/ha,0
same,Plant response rating Large crabgrass,large crabgrass [2]; Rate 280 g/ha,60
same,Plant response rating Large crabgrass,large crabgrass [2]; Rate 560 g/ha,60
same,Plant response rating Large crabgrass,large crabgrass [2]; Rate 1120 g/ha,80
same,"Plant response rating, Sugar beet",sugar beet; Rate 62 g/ha,0
same,"Plant response rating, Sugar beet",sugar beet; Rate 125 g/ha,20
same,"Plant response rating, Sugar beet",sugar beet; [3],40
same,Sugar beet plant response rating,sugar beet; [4],30
same,"Plant response rating, Deadnettle",deadnettle; [7],40
same,Deadnettle plant response rating (0 to 100 scale),deadnettle; Rate 250 g/ha,40
same,"Plant response rating, Deadnettle",deadnettle; [8],50
same,"Plant response rating, Wild mustard",wild mustard; [7],60
same,Wild mustard plant response rating (0 to 100 scale),wild mustard; Rate 250 g/ha,95
same,"Plant response rating, Wild mustard",wild mustard; [8],100
